According to patent US20260376311A1, “Subject selection for 11B-HSD1 inhibitor treatment” (ACTINOGEN MEDICAL LIMITED, priority 2022, published 2026):

Columns and labels:
[1] = Clinical Dementia Rating Scale-Sum of Boxes (CDR-SB), Phase II placebo-controlled study, Biomarker Extension Study; format: in vivo, human; conditions: 12 weeks
Experimental: (§1) A Phase II, Double-Blind, 12-Week, Randomised, Placebo-Controlled Study was conducted to Assess the Safety, Tolerability and Efficacy of Xanamem™ in Subjects with Mild Dementia due to Alzheimer's Disease (AD).
(§2) Study Design: This is a Phase II, randomized, multi-centre, double-blind, placebo-controlled, proof-of-concept study to assess the safety, tolerability and efficacy of oral Xanamem™ QD in adult subjects with mild dementia due to AD.
(§3) At the Baseline visit (Week 0), eligible subjects will be randomised on a 1:1 ratio to receive either 10 mg Xanamem™ administered orally, QD (treatment group) or matching placebo (placebo group). Subjects returned to the study site for the Interim visits (Week 4 and Week 8), EOT (Week 12) and Follow-up (4 weeks post last dose of study drug) visits, at which study assessments were performed.
(§4) Xanamem™ is formulated in green and cream-coloured size 3, Coni-Snap shaped gelatin capsules as an excipient blend at a dose of 10 mg (see Table 1). The dose of Xanamen™ will be 10 mg administered orally, QD.
The Washington University CDR is a global assessment instrument that yields global and SOB scores, with the global score regularly used in clinical and research settings to stage dementia severity. The CDR-SOB score has been considered a more detailed quantitative general index than the global score and provides more information than the global CDR score in participants with mild dementia. CDR Global results are relevant for subject eligibility and thus will also be performed at the Screening visit.
The CDR is obtained through semi-structured interviews of patients and informants, and cognitive functioning is rated in six domains of functioning: memory, orientation, judgement and problem solving, community affairs, home and hobbies, and personal care. Each domain is rated on a five-point scale of functioning as follows: 0, no impairment; 0.5, questionable impairment; 1, mild impairment; 2, moderate impairment; and 3, severe impairment.
The global CDR score is computed via an algorithm. CDR Global score is calculated using the Washington University online algorithm. The CDR-SOB is based on summing each of the domain box scores, with scores ranging from 0-18.
(§5) A Non-interventional Biomarker Analysis Extension Protocol study was conducted for Participants who were previously enrolled in the above described Phase II, Double-Blind, 12-Week, Randomised, Placebo-Controlled Study to Assess the Safety, Tolerability and Efficacy of Xanamem™ in Subjects with Mild Dementia due to Alzheimer's Disease (AD). The objectives for study were: • 1. To analyze the levels of biomarkers of Alzheimer's Disease (AD) proteins, neurodegeneration, and neuro-inflammation in stored plasma samples from participants with mild dementia due to AD enrolled in the previous clinical trial (at baseline and Week 12 and their change from baseline for each treatment) • 2. To examine the change from baseline in biomarkers by treatment group to Week 12 by baseline pTau181 quartile categorization/level • 3. To explore the efficacy of Xanamem in relationship to quartiles categorization/level of pTau181 levels at baseline • 4. To correlate the changes from baseline in biomarkers by treatment with changes in cognitive endpoints
From above described clinical study, the extant blood samples of 72 patients were subjected to further disease biomarker analysis. A biomarker laboratory (blinded to treatment assignment), analyzed those blood samples to determine the biomarker variable pTau181. […]

[2] = Mini-Mental Status Examination (MMSE), Phase II placebo-controlled study, Biomarker Extension Study; format: in vivo, human
Experimental: as §1, §2, §3, §4
The MMSE is a 30-point questionnaire that is used extensively in clinical and research settings to measure cognitive impairment and is commonly used in medicine and allied health to screen for dementia. It is also used to estimate the severity and progression of cognitive impairment and to follow the course of cognitive changes in an individual over time; thus making it an effective way to document a participant's response to treatment. For this study, MMSE results are relevant for subject eligibility and performed at Screening visit.
as §5
(§6) From above described clinical study, the extant blood samples of 72 patients were subjected to further disease biomarker analysis. A biomarker laboratory (blinded to treatment assignment), analyzed those blood samples to determine the biomarker variable pTau181.
An analysis of overall efficacy was undertaken of the population (n=72).
(§7) For the cognitive efficacy variables (CDR-SB and MMSE), change from baseline to Week 12 was analyzed by ANCOVA with the following models: • treatment as fixed effect and baseline cognitive efficacy value as covariate; • treatment, baseline p-Tau181 (low/high) category, and treatment-by-baseline p-Tau181 (low/high) category as fixed effects, and baseline cognitive efficacy value as covariate; • treatment, baseline p-Tau181 (≤10.2 pg/mL/>10.2 pg/mL) category, and treatment-by-baseline p-Tau181 (≤10.2 pg/mL/>10.2 pg/mL) category as fixed effects, and baseline cognitive efficacy value as covariate; and • treatment, baseline MMSE (less severe (≥24)/more severe (≤23)) category, and treatment-by-baseline MMSE (less severe (≥24)/more severe (≤23)) category as fixed effects, and baseline cognitive efficacy value as covariate.

pTau181 = assay: Biomarker analysis of plasma pTau181, Biomarker Extension Study; format: in vivo, human; conditions: 10 mg QD
Experimental: as §5, §6
as §7, with “biomarker p-Tau181,” for “cognitive efficacy variables (CDR-SB and MMSE),”, “were” for “was”, “biomarker” for “cognitive efficacy”

[3] = Pharmacokinetics of Xanamem (Phase I peak concentrations; fed/fasted bioavailability); format: in vivo, human; conditions: oral; with meals vs fasted; in words
[4] = Safety of drug intake when fasted; format: in vivo, human; conditions: oral, in words
[5] = comparison with Xanamem treatment effect; cited from earlier work
[6] = 10 mg QD oral, pTau >6.74 pg/mL subgroup, N = 34
[7] = 10 mg QD oral, pTau > 10.2 pg/mL, N = 9
[8] = 10 mg QD oral, pTau ≤ 10.2 pg/mL, N = 59
[9] = Xanamem vs placebo, pTau>6.74 pg/mL subgroup, 10 mg QD
[10] = 10 mg QD oral, 12 weeks, baseline MMSE 20-23, N = 46
[11] = 10 mg QD oral, 12 weeks, baseline MMSE 24-26, N = 26
[12] = baseline to Week 12, sample size 28 and 26

O=C(c1csc(-c2cn[nH]c2)c1)N1[C@@H]2CC[C@H]1C[C@](O)(c1ncccn1)C2 [Xanamem, (5-(1H-Pyrazol-4-yl)thiophen-3-yl)(3-hydroxy-3-(pyrimidin-2-yl)-8-azabicyclo[3.2.1]octan-8-yl)methanone]
CDR-SB change, pTau pg/mL > 10.2 (median) ([1]; 10 mg QD oral, N = 9, desired change down, placebo 0.5): −0.3
CDR-SB change, pTau pg/mL > 10.2 (mean) ([1]; 10 mg QD oral, N = 9, desired change down, placebo 0.8): 0.1
CDR-SB change, pTau units ≤ 6.74 (median) ([1]; 10 mg QD oral, N = 34, desired change down, placebo 0.0): 0.0
CDR-SB change, pTau > 6.74 pg/mL (median) ([1]; 10 mg QD oral, N = 34, desired change down, placebo 0.8): 0.0
CDR-SB change, pTau > 6.74 pg/mL (mean) ([1]; 10 mg QD oral, N = 34, desired change down, placebo 1.0): 0.4
CDR-SB change, pTau units ≤ 6.74 (mean) ([1]; 10 mg QD oral, N = 34, desired change down, placebo −0.1): 0.5
CDR-SB change, pTau ≤ 10.2 pg/mL (median) ([1]; 10 mg QD oral, N = 59, desired change down, placebo 0.0): 0.0
CDR-SB change, pTau ≤ 10.2 pg/mL (mean) ([1]; 10 mg QD oral, N = 59, desired change down, placebo 0.4): 0.5
Cohen's d for CDR-SB (mean), Xanamem vs placebo [1, 6]: 0.41
p value for CDR-SB (mean), Xanamem vs placebo [1, 6]: 0.09
CDR-SB units (median), change ([1]; 10 mg QD oral, pTau >6.74 pg/mL subgroup, Xanamem n = 16, desired change down, placebo 0.8): 0.0 CDR-SB units
CDR-SB units (mean), change ([1]; 10 mg QD oral, pTau >6.74 pg/mL subgroup, Xanamem n = 16, desired change down, placebo 1.0): 0.4 CDR-SB units
Cohen's d for CDR-SB (mean), Xanamem vs placebo [1, 7]: 0.62
p value for CDR-SB (mean), Xanamem vs placebo [1, 7]: 0.33
Cohen's d for CDR-SB (mean), Xanamem vs placebo ([1]; 10 mg QD oral, pTau units ≤ 6.74, N = 34): 0.40
p value for CDR-SB (mean), Xanamem vs placebo ([1]; 10 mg QD oral, pTau ≤ 6.74 pg/mL, N = 34): 0.08
Cohen's d for CDR-SB (mean), Xanamem vs placebo [1, 8]: −0.06
p value for CDR-SB (mean), Xanamem vs placebo [1, 8]: 0.78
treatment effect on CDR-SB, mean [1, 9]: 0.6 points
treatment effect on CDR-SB, median [1, 9]: 0.8 points
Cohen's d for MMSE (mean), Xanamem vs placebo [2, 10]: 0.93
p value for MMSE (mean), Xanamem vs placebo [2, 10]: 0.02
MMSE change, MMSE 20-23 (mean) ([2]; 10 mg QD oral, 12 weeks, baseline MMSE 20-23, N = 46, desired change up, placebo −0.3): 1.7
MMSE change, MMSE 20-23 (median) ([2]; 10 mg QD oral, 12 weeks, baseline MMSE 20-23, N = 46, desired change up, placebo −1.0): 2.0
Cohen's d for MMSE (mean), Xanamem vs placebo [2, 11]: −0.17
p value for MMSE (mean), Xanamem vs placebo [2, 11]: 0.88
MMSE change, MMSE 24-26 (median) ([2]; 10 mg QD oral, 12 weeks, baseline MMSE 24-26, N = 26, desired change up, placebo −1.0): −1.0
MMSE change, MMSE 24-26 (mean) ([2]; 10 mg QD oral, 12 weeks, baseline MMSE 24-26, N = 26, desired change up, placebo −1.4): −1.5
Cohen's d for MMSE, Xanamem over placebo ([2]; overall population n=72, 10 mg QD): 0.35
increase in the mean MMSE score ([2]; overall population n=72, Xanamem n=37, 10 mg QD, placebo (n=35) decrease of 0.6): 0.3
change in biomarker pTau181 from baseline to Week 12 (pTau181; sample size 28 (Xanamem) and 26 (placebo), placebo −8.59): −2.37
treatment trend in change of pTau181 (pTau181; baseline to Week 12, in words): no treatment trend was observed
Cohen's d for change in pTau181, Xanamem vs placebo (pTau181; [12]): 0.08
p for change in pTau181, Xanamem vs placebo (pTau181; [12]): 0.40
bioavailability in fed state [3]: higher bioavailability observed when taken in a fed state
safety of drug intake when fasted [4]: no safety concern

CC12CC3CC(C)(C1)CC(N)(C3)C2 [memantine]
Cohen's d of approved oral anticholinesterases or memantine [5]: 0.2-0.3
